Results as given in PubChem BioAssay (NCI).
“And” between values parts separate entries of the source, which are not always exact repeats. Equal values may be shown once.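 These data come from cells grown in 96-well plates and exposed to compound for 48 hours at five concentrations. Here, GI50 denotes the concentration required for 50% inhibition of growth. TGI: total growth inhibition.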

Columns and labels:
Test in all cases: DTP human tumour cell line panel, 48 h
[1] = test system: A498 renal
[2] = test system: CCRF-CEM leukemia
[3] = test system: COLO 205 colon
[4] = test system: EKVX NSCLC
[5] = test system: IGROV1 ovarian
[6] = test system: NCI-H226 lung
[7] = test system: NCI-H23 lung
[8] = test system: SN12C renal
[9] = test system: TK-10 renal
[10] = test system: UACC-62 melanoma

SMILES	TGI [1]	TGI [2]	TGI [3]	TGI [4]	TGI [5]	TGI [6]	TGI [7]	TGI [8]	TGI [9]	TGI [10]	GI50 [1]	GI50 [2]	GI50 [3]	GI50 [4]	GI50 [5]	GI50 [6]	GI50 [7]	GI50 [8]	GI50 [9]	GI50 [10]
CN1CC[C@]2(C)c3ccc(O)cc3CC3CCCC1C32C (some centres not stated)	> 100 µM	> 100 µM	> 100 µM	> 100 µM	> 100 µM	> 100 µM	> 100 µM	> 100 µM	> 100 µM	> 100 µM										
COc1cc(/C=C2\C(=O)Nc3ccc(N(C)C)cc32)cc(OC)c1OC	> 100 µM	10.1 µM	4.73 µM	> 100 µM	5.43 µM	> 100 µM	> 100 µM	42.3 µM	40.6 µM	> 100 µM	4.67 µM	2.28 µM	1.89 µM	5.25 µM	1.5 µM	14.2 µM	3.07 µM	4.26 µM	6.42 µM	2.5 µM
COc1ccc(N2C(=O)[C@H]3CC(C)c4c([nH]c5ccccc45)[C@H]3C2=O)cc1 (some centres not stated)	77.7 µM	46.9 µM	9.11 µM	> 95 µM	85.9 µM	38.3 µM	29.4 µM	83.9 µM	52.7 µM	22.7 µM										
COc1ccccc1/C=C/C(=O)c1ccccc1	31 µM	11.5 µM	42.1 µM	28.5 µM	8.7 µM	33.1 µM	36.6 µM	22.9 µM	36.5 µM	18.4 µM	16.3 µM	2.87 µM	16.9 µM	11 µM	2.2 µM	13.3 µM	15.2 µM	7.55 µM	21.2 µM	5.17 µM
CC[PH+](CC)CC.O=COC1OC([S-])C(OC=O)C(OC=O)C1OC=O.[Au+] (configuration not stated)	3.29 µM	4.1 µM	4.7 µM	3.32 µM	2.62 µM	4.23 µM	3.22 µM	2.75 µM	3.39 µM	2.31 µM	1.86 µM	0.64 µM	2.23 µM	1.74 µM	1.2 µM	1.96 µM	1.47 µM	1.44 µM	1.74 µM	1.06 µM
Cc1cc(S(=O)(=O)NC#N)c(S/C(=N\Nc2ccc([N+](=O)[O-])cc2)c2ccc(Cl)cc2)cc1Cl	2.3 µM	> 100 µM	30.7 µM	70.2 µM	> 100 µM	46.1 µM	> 100 µM	> 100 µM	> 100 µM	> 100 µM		32.1 µM	15.2 µM	20.2 µM	> 100 µM	18.5 µM	77.9 µM	> 100 µM	25 µM	> 100 µM
Cc1cc(Cl)ccc1Nc1nc(C(F)(F)F)ccc1C(=O)N/N=C/c1ccc([N+](=O)[O-])cc1	7.1 µM	0.526 µM	3.64 µM	> 29.7 µM	12.9 µM	4.27 µM	> 22 µM	> 100 µM	8.32 µM	11.7 µM	1.41 µM	0.144 µM	1.75 µM	2.37 µM	2.21 µM	1.58 µM	1.65 µM	2.92 µM	1.95 µM	2.6 µM
Cc1cc2c(cc1Cl)SC1=NN(C)C(N(C)C)N1S2(=O)=O (configuration not stated)	> 100 µM	> 100 µM	> 100 µM	> 100 µM	> 100 µM	> 100 µM	> 100 µM	> 100 µM	> 100 µM	> 100 µM	63.4 µM	> 100 µM	> 100 µM	> 100 µM	> 100 µM	> 100 µM	> 100 µM	> 100 µM	> 100 µM	> 100 µM
Cc1ccc(-c2cc(-c3ccccc3)c(C#N)c(=O)n2C2OC(CO)C(O)C(O)C2O)cc1 (configuration not stated)	> 100 µM	> 100 µM	> 100 µM	> 100 µM	> 100 µM	> 100 µM	> 100 µM	> 100 µM	> 100 µM	> 100 µM										
CCn1c(-c2nonc2N)nc2c(C#CC(C)(C)O)nc(OCCNC)cc21	9.43 µM	> 25 µM	10.3 µM	> 25 µM	> 25 µM	> 23.1 µM	> 25 µM	> 25 µM	20.4 µM	16.9 µM	1.35 µM	7.25 µM	4.84 µM	> 18.3 µM	8.13 µM	8.09 µM	8.81 µM	7.84 µM	6.35 µM	6.08 µM
CC[O-].CC[O-].O=S(=O)([O-])c1ccc([O-])c2ncccc12.O=S(=O)([O-])c1ccc([O-])c2ncccc12.[Ti+4]	> 100 µM	> 100 µM	> 100 µM	> 100 µM	> 100 µM	> 100 µM	> 100 µM	> 100 µM	> 100 µM	> 100 µM	> 100 µM	53.3 µM	83.2 µM	> 100 µM	> 100 µM	> 100 µM	> 100 µM	> 100 µM	> 100 µM	66.2 µM
COc1ccc2[nH]c(O)c(C(=Nc3ccc(N(C)C(=O)CN4CCN(C)CC4)cc3)c3ccccc3)c2c1	3.45 µM	10.4 µM	2.9 µM	16.2 µM	10.1 µM	15.6 µM	12.2 µM	10.4 µM	7.08 µM	16.4 µM	1.64 µM	2.68 µM	0.575 µM	3.94 µM	1.36 µM	2.27 µM	1.73 µM	0.74 µM	1.99 µM	5.01 µM
C=CC(=O)Nc1cc2c(Nc3ccc(F)c(Cl)c3)ncnc2cc1OCCCN1CCOCC1	2.51 µM and 5.15 µM	> 27.4 µM	7.32 µM and > 10 µM	12.4 µM and > 10 µM	3.26 µM and 2.88 µM	5.59 µM and > 10 µM	3.94 µM and > 6.12 µM	6.8 µM and > 10 µM	9.6 µM and 6.78 µM	4.48 µM and > 7.71 µM	0.357 µM and 0.681 µM	2.19 µM and 2.63 µM	2.42 µM and 4.59 µM	0.0262 µM and 0.0367 µM	0.993 µM and 0.284 µM	2.08 µM and > 6.11 µM	1.82 µM and 2.39 µM	0.805 µM and 1.59 µM	< 0.01 µM and 0.00217 µM	1.77 µM and 2.19 µM
COc1ccc(Cn2c3c(cc(OS(=O)(=O)C(F)(F)F)c2=O)Cc2ccccc2-3)cc1	> 100 µM	50 µM and > 100 µM	50 µM and > 100 µM	50 µM and > 100 µM	50 µM and > 100 µM	50 µM and > 100 µM	50 µM and > 100 µM	50 µM and 47 µM	50 µM and > 100 µM	50 µM and 32.1 µM	> 100 µM	3.95 µM	61.1 µM	3.36 µM	7.26 µM	37.7 µM	8.26 µM	5.91 µM	19.5 µM	5.39 µM
CCC[n+]1cc2cc(OC)c(OC)cc2c2c1-c1cc3c(cc1C2)OCO3	50.9 µM		8.52 µM	48 µM	12.6 µM	8.13 µM	13.2 µM	6.84 µM	58.9 µM	5.77 µM	17.6 µM	2.53 µM	1.61 µM	11.9 µM	2.27 µM	1.03 µM	2.34 µM	0.638 µM	22.6 µM	2.06 µM
CN1C(=O)N(C)C2C1NN=c1s/c(=C\c3ccc(F)cc3)c(=O)n12 (configuration not stated)	6.77 µM	> 100 µM	> 100 µM	> 100 µM	> 100 µM	> 100 µM	> 100 µM	> 100 µM	> 100 µM	> 100 µM	1.39 µM	1.91 µM	2.51 µM	4.02 µM	3.21 µM	8.02 µM	4.23 µM	6.97 µM	6.06 µM	3.61 µM
Cc1[nH]nc(C(=O)n2nc(N)c3ccccc32)c1[N+](=O)[O-]	> 100 µM	> 100 µM	> 100 µM	> 100 µM	> 100 µM	> 100 µM	> 100 µM	> 100 µM	> 100 µM	> 100 µM	> 100 µM	32.2 µM	> 100 µM	> 100 µM	37.5 µM	> 100 µM	> 100 µM	> 100 µM	> 100 µM	> 100 µM
COC(=O)[C@]12CCC(C)[C@H](C)[C@H]1C1=CCC3[C@@]4(C)CC[C@H](OC(C)=O)C(C)(C)C4CC[C@@]3(C)C1(C)C(O)C2 (some centres not stated)	> 100 µM	> 100 µM	> 100 µM	> 100 µM	> 100 µM	83.1 µM	> 100 µM	> 100 µM	> 100 µM	> 100 µM										
NC(N)=NCCC1OC(=O)C2=C1c1c(O)ccc3nccc(c13)O2 (configuration not stated)	> 100 µM	> 100 µM	> 100 µM	> 100 µM	> 100 µM	> 100 µM	> 100 µM	> 100 µM	> 100 µM	> 100 µM	> 100 µM	> 100 µM	> 100 µM	> 100 µM	> 100 µM	89.9 µM	> 100 µM	> 100 µM	> 100 µM	> 100 µM
OC1(c2ccccc2)OC(C#Cc2ccccc2)(c2ccccc2)c2ccccc21 (configuration not stated)	10.1 µM	> 100 µM	5.38 µM	11.9 µM	24.1 µM	7.98 µM	11.3 µM	10.2 µM	26.2 µM	3.84 µM										
Cc1cc2c(cc1C)N(C(=O)CCl)CCN2C(=O)CCl	3.29 µM	0.856 µM	1.02 µM	4.64 µM	> 19.9 µM	1.8 µM	3.8 µM	2.67 µM	4.76 µM	2.29 µM	1.79 µM	0.282 µM	0.484 µM	1.99 µM	0.62 µM	0.559 µM	1.76 µM	0.754 µM	1.79 µM	0.657 µM
Cc1cc(C)c(C(=O)c2no[n+]([O-])c2C(=O)c2c(C)cc(C)c(Br)c2C)c(C)c1Br	32.6 µM	8.88 µM	31.4 µM	24.4 µM	23.3 µM	31.6 µM	24.3 µM	33.4 µM	26.5 µM	23.7 µM										
C/C(CCc1ccccc1)=N\NC(N)=S	> 100 µM	> 100 µM	> 100 µM	> 100 µM	> 100 µM	> 100 µM	> 100 µM	> 100 µM	> 100 µM	> 100 µM										
O=c1cccc(C2CC(CO)C3CCCCN3C2)[nH]1 (configuration not stated)	> 100 µM	> 100 µM	> 100 µM	> 100 µM	> 100 µM	> 100 µM	> 100 µM	> 100 µM	> 100 µM	> 100 µM										
CCN(CC)C(=S)SC	> 100 µM	> 100 µM	> 100 µM	> 100 µM	> 100 µM	> 100 µM	> 100 µM	> 100 µM	> 100 µM	> 100 µM										
COC1C2C=CC(C2)[C@H]1[N+](=O)[O-] (some centres not stated)	> 100 µM	> 100 µM	> 100 µM	> 100 µM	> 100 µM	> 100 µM	> 100 µM	> 100 µM	> 100 µM	> 100 µM										
COC(=O)C(CC(=O)Nc1ccc(C)cc1)C(=O)C(=O)Nc1ccccc1C(C)C (configuration not stated)	> 100 µM	> 100 µM	> 100 µM	> 100 µM	> 100 µM	> 100 µM	> 100 µM	> 100 µM	> 100 µM	> 100 µM										
NC(=O)c1cc2c3ccccc3ccn2c1-c1ccccc1	7.42 µM	13.8 µM	2.31 µM	45.3 µM	33.4 µM	25.7 µM	14.4 µM	15.2 µM	24 µM	> 41.7 µM	0.0468 µM	0.0425 µM	0.454 µM	0.396 µM	0.141 µM	0.627 µM	0.319 µM	0.0889 µM	0.719 µM	0.0385 µM
COc1cc2ncnc(Nc3ccc(F)c(Cl)c3)c2cc1NC(=O)/C=C/CN1CCCCC1	4.04 µM and 3.71 µM	5.7 µM and 8 µM	3.43 µM and 4.18 µM	> 10 µM	2.96 µM and 2.07 µM	19.3 µM and > 10 µM	7.81 µM and > 8.79 µM	3.35 µM and 2.3 µM	1.68 µM and 2.3 µM	3.02 µM and 3.23 µM	0.812 µM and 0.556 µM	1.01 µM and 2.03 µM	1.68 µM and 2 µM	0.00274 µM		2.91 µM and 4.52 µM	2.65 µM and 2.54 µM	0.429 µM and 0.389 µM	< 0.01 µM and 0.00151 µM	1.61 µM and 1.73 µM
